Source: patent US6417195B1, “Isoquinoline derivatives and isoquinoline combinatorial libraries” (Lion Bioscience AG, priority 1999, dated 2002)

These compounds were tested on Streptococcus pyogenes (assay: Anti-microbial screen). Details: growth at 4 hrs, OD 570 nm, Todd Hewitt Broth.
Format: cell-based
Experimental: Streptococcus pyogenes (ATCC# 97-03 14289) were grown in Todd Hewitt Broth (THB) (Difco Laboratories #0492-17-6) overnight until they reached an optical density of (OD═0.636@ 570 nm) by reading 0.1 ml in a 96 well microtiter plate in a Molecular Devices Thermomax. This preparation was kept frozen as stocks in 30% v/v glycerol in 1.5 ml aliquots at −70° C. until use. Prior to experiments 1.5 ml aliquots were thawed and diluted into 50 ml THB. 200 ul of this dilution was added to 92 wells of microtiter plate. To three wells THB (200 ul) was added to serve as a blank and a sterility control. Test compounds in DMSO and appropriate concentrations of DMSO were added to Growth/Solvent Controls at 0 time. Plates were read at 0 time at 570 nm in the Molecular Devices plate reader to obtain compounds correction factors for insoluble or colored compounds. Plates were read again at 4 hrs.
Percent inhibition was calculated with the following formulae:
Color correct=(O.D. 0 hr−Blank 0 hr)−(Solvent Control 0 hr−Blank 0 hr)
% Inhibition=100−O.D. test compound 4 hr−Blank 4 hr−color correct
O.D. growth/solvent control 4 hr−Blank 4 hr

Row | SMILES | % Inhibition
1 | CCCCOCCCNC(=O)C1c2ccccc2C(=O)N(CCC(=O)N(CCN(CCCC)CCCC)CC(N)=O)C1c1ccc(O)c(O)c1 (stereo not drawn) [Compound 2520-722] | 58%
2 | CCN1CCCC1CN(CC(N)=O)C(=O)c1ccc(CN2C(=O)c3ccccc3C(C(=O)NC3CCC(C(C)(C)C)CC3)C2c2ccc(O)cc2)cc1 (stereo not drawn) [Compound 2530-3186] | 101%
3 | CCCN(CC(N)=O)C(=O)C1CCC(CN2C(=O)c3ccccc3C(C(=O)NCc3cccnc3)C2c2cccc(C)n2)CC1 (stereo not drawn) [Compound 2530-1538] | 15%
4 | CCN1CCCC1CN(CC(N)=O)C(=O)CCN1C(=O)c2ccccc2C(C(=O)N2CCN(C)CC2)C1c1ccc(-c2ccccc2)cc1 (stereo not drawn) [Compound 2520-6333] | 78%
5 | CCCCN(CCCC)CCN(CC(N)=O)C(=O)CCN1C(=O)c2ccccc2C(C(=O)NCCN(CC)c2cccc(C)c2)C1c1ccc(O)c(O)c1 (stereo not drawn) [Compound 2520-721] | 86%
6 | CCN1CCCC1CN(CC(N)=O)C(=O)CCN1C(=O)c2ccccc2C(C(=O)N2CCN(Cc3ccccc3)CC2)C1c1ccc(-c2ccccc2)cc1 (stereo not drawn) [Compound 2520-6332] | 98%
7 | CSc1ccc2c3c1C(Br)CCN3C(=O)C1c3ccccc3C(=O)N(Cc3ccc(C(=O)N(CCc4ccc(Cl)cc4Cl)CC(N)=O)cc3)C21 (stereo not drawn) [Compound 2530-4401] | 45%
8 | CN(C)CCN(CC(N)=O)C(=O)CCN1C(=O)c2ccccc2C(C(=O)NCCN2CCCC2)C1c1ccc(O)c(O)c1 (stereo not drawn) [Compound 2520-1] | 9%
9 | CCN(CC)CCCC(C)NC(=O)C1c2ccccc2C(=O)N(Cc2ccc(C(=O)N(CC(N)=O)CC3CCCN3CC)cc2)C1c1ccc(O)cc1 (stereo not drawn) [Compound 2530-3185] | 4%
10 | CCCCOCCCNC(=O)C1c2ccccc2C(=O)N(CCC(=O)N(CC(N)=O)Cc2ccccc2)C1c1ccc(N(C)C)cc1 (stereo not drawn) [Compound 2520-3138] | 19%
11 | CN(C)CCN(CC(N)=O)C(=O)CCN1C(=O)c2ccccc2C(C(=O)NC2CCC(C(C)(C)C)CC2)C1c1ccc(O)c(O)c1 (stereo not drawn) [Compound 2520-2] | 94%
12 | CCN(CCNC(=O)C1c2ccccc2C(=O)N(CCC(=O)N(CC(N)=O)CC2CCCN2CC)C1c1ccc(SC)cc1)c1cccc(C)c1 (stereo not drawn) [Compound 2520-7921] | 100%
13 | NC(=O)CN(CCN1CCCCC1)C(=O)c1ccc(CN2C(=O)c3ccccc3C(C(=O)NCc3cccnc3)C2c2ccccc2)cc1 (stereo not drawn) [Compound 2530-866] | 11%
14 | CCN1CCCC1CN(CC(N)=O)C(=O)CCN1C(=O)c2ccccc2C(C(=O)NCCCN2CCCCC2C)C1c1ccc(N(C)C)cc1 (stereo not drawn) [Compound 2520-7125] | 100%
15 | CCCCOCCCNC(=O)C1c2ccccc2C(=O)N(CCC(=O)N(CC(N)=O)NC(=O)OC)C1c1cc(C(F)(F)F)cc(C(F)(F)F)c1 (stereo not drawn) [Compound 2520-5548] | 43%
16 | CCN1CCCC1CN(CC(N)=O)C(=O)CCN1C(=O)c2ccccc2C(C(=O)NCCCN2CCCCC2C)C1c1cccc([N+](=O)[O-])c1 (stereo not drawn) [Compound 2520-2341] | 104%
17 | CCOC(=O)CC(C)NC(=O)C1c2ccccc2C(=O)N(CCC(=O)N(CCN(C)C)CC(N)=O)C1c1cccc(Oc2ccccc2)c1 (stereo not drawn) [Compound 2520-4745] | 99%

Row | SMILES | % Inhibition
18 | C=CCN(CC(N)=O)C(=O)c1ccc(CN2C(=O)c3ccccc3C3C(=O)N4CCOc5c(O)ccc(c54)C32)cc1 (stereo not drawn) [Compound 2530-6447] | 8%
19 | C=CCN(CC(N)=O)C(=O)c1ccc(CN2C(=O)c3ccccc3C(C(=O)NCCCCCCCCCCCC)C2c2ccc(O)cc2)cc1 (stereo not drawn) [Compound 2530-6448] | 53%
20 | CCc1ccc(C2C(C(=O)NCCN(C)C)c3ccccc3C(=O)N2Cc2ccc(C(=O)N(CCOC)CC(N)=O)cc2)cc1 (stereo not drawn) [Compound 2530-4162] | 30%
21 | CN(C)CCN(CC(N)=O)C(=O)c1ccc(CN2C(=O)c3ccccc3C(C(=O)NCc3cccnc3)C2c2ccccc2)cc1 (stereo not drawn) [Compound 2530-2] | 51%
22 | NC(=O)CN(CCN1CCCCC1)C(=O)c1ccc(CN2C(=O)c3ccccc3C(C(=O)NCCN3CCCC3)C2c2ccccc2)cc1 (stereo not drawn) [Compound 2530-865] | 20%
23 | C=CCNC(=O)C1c2ccccc2C(=O)N(CCC(=O)N(CCN(C)C)CC(N)=O)C1c1cccc(Oc2ccccc2)c1 (stereo not drawn) [Compound 2520-4746] | 100%
24 | NC(=O)CN(CCN1CCOCC1)C(=O)c1ccc(CN2C(=O)c3ccccc3C3C(=O)N4CCN(Cc5ccccc5)c5c(-c6ccccc6)ccc(c54)C32)cc1 (stereo not drawn) [Compound 2530-2501] | 109%
25 | CCN(CCNC(=O)C1c2ccccc2C(=O)N(CCC(=O)N(CC(N)=O)Cc2ccccc2)C1c1ccc(N(C)C)cc1)c1cccc(C)c1 (stereo not drawn) [Compound 2520-3137] | 66%
26 | CSc1ccc(C2C(C(=O)NCCN(C)C)c3ccccc3C(=O)N2Cc2ccc(C(=O)N(CCc3ccc(Cl)cc3Cl)CC(N)=O)cc2)cc1 (stereo not drawn) [Compound 2530-4402] | 96%
27 | CCCCOCCCNC(=O)C1c2ccccc2C(=O)N(CCC(=O)N(CC(N)=O)CC2CCCN2CC)C1c1ccc(SC)cc1 (stereo not drawn) [Compound 2520-7922] | 87%
28 | CCN(CCNC(=O)C1c2ccccc2C(=O)N(CCC(=O)N(CC(N)=O)NC(=O)OC)C1c1cc(C(F)(F)F)cc(C(F)(F)F)c1)c1cccc(C)c1 (stereo not drawn) [Compound 2520-5545] | 86%
29 | CN(C)CCN(CC(N)=O)C(=O)c1ccc(CN2C(=O)c3ccccc3C(C(=O)NCCN3CCCC3)C2c2ccccc2)cc1 (stereo not drawn) [Compound 2530-1] | 44%
30 | CCOC(=O)CCNC(=O)C1c2ccccc2C(=O)N(CCC(=O)N(CC(N)=O)CC2CCCN2CC)C1c1ccc(N(C)C)cc1 (stereo not drawn) [Compound 2520-7126] | 26%
31 | NC(=O)CN(CCCn1ccnc1)C(=O)C1CCC(CN2C(=O)c3ccccc3C3C(=O)N4CCC(N5CCCC5)c5cccc(c54)C32)CC1 (stereo not drawn) [Compound 2530-4819] | 20%
32 | CCCN(CC(N)=O)C(=O)C1CCC(CN2C(=O)c3ccccc3C(C(=O)NCCN3CCCC3)C2c2cccc(C)n2)CC1 (stereo not drawn) [Compound 2530-1537] | 4%
33 | CC(C)(C)C1CCC(NC(=O)C2c3ccccc3C(=O)N(CC3CCC(C(=O)N(CCCn4ccnc4)CC(N)=O)CC3)C2c2ccccc2)CC1 (stereo not drawn) [Compound 2530-4818] | 61%
